Data published in paper PMC11524583, “Neurons enhance blood–brain barrier function via upregulating claudin-5 and VE-cadherin expression due to glial cell line-derived neurotrophic factor secretion” (eLife, 2024).
Values joined by “and” are separate entries in the source; they are usually repeats but may differ in a detail not shown here. Equal entries are not always repeated. Where two headings read alike, the source gives them in different places. Marks after values point to notes of the source that are not given here.

Tests used:
[1] = tested on: hCMEC/D3 mono-culture BBB model; details: human
[2] = unbound fraction in brain, cited from earlier work
[3] = in vitro; details: human
[4] = tested on: hCMEC/D3 mono-culture BBB model; assay: In vitro BBB permeability study (Papp), hCMEC/D3 mono-culture BBB model; details: for PS: PS worked out from mean Papp
[5] = tested on: triple co-culture BBB model (hCMEC/D3, U251 and SH-SY5Y cells); assay: In vitro BBB permeability study (Papp), triple co-culture BBB model; details: Triple co-culture BBB model; for PS: PS worked out from mean Papp
[6] = in vitro; details: human; remark: listed apart in the source
[7] = in situ brain perfusion in rodents, published permeability multiplied by VSA 150 cm^2/g, cited from earlier work
[8] = tested on: VE-cadherin; assay: Western blot of VE-cadherin expression in hCMEC/D3 cells; format: cell-based, Homo sapiens; details: for GDNF-induced VE-cadherin expression: hCMEC/D3 cells, 200 pg/ml GDNF, 3 μM SPP-86, 5 μM PP2, 3 μM LY294002, 2 μM U0126, 5 μM SP600125, 2 μM SB203580, anti-GDNF antibody 0.25, 0.5, 1.0 μg/ml; for VE-cadherin/β-actin Relative Expression, Mean / VE-cadherin/β-actin Relative Expression: Figure 2G; for VE-cadherin/β-actin Relative Expression, Mean: Con = 1.000; for VE-cadherin/β-actin Relative Expression: relative to Con, single replicates
Description: (§1) Whole-cell and tissue lysates, nucleoprotein, and cytoplasmic protein were prepared using RIPA Lysis Buffer (Beyotime, Shanghai, China) as the described method ([Wu et al., 2021]). Proteins were separated through sodium dodecyl sulfate–polyacrylamide gel electrophoresis and transferred onto nitrocellulose or polyvinylidene difluoride membranes. The membranes were blocked with 5% skim milk and incubated with corresponding primary antibodies at 4°C overnight. After being washed with Tris-buffered saline Tween buffer, the membranes were incubated with secondary antibodies (Cell Signaling Technology, MA, USA) at 1:3000 dilution: Anti-mouse IgG, HRP-linked Antibody (#7076), Anti-rabbit IgG, HRP-linked Antibody (#7074). Protein levels were visualized using a highly sensitive ECL western blotting substrate and a gel imaging system (Tanon Science & Technology, Shanghai, China).
(§2) CM of U251 cells (U-CM), SH-SY5Y cells (S-CM), or co-culture of U251 and SH-SY5Y cells (US-CM) was prepared. U251 cells were seeded at the top of the insert membrane and suspended on 6-well plates seeded with differentiated SH-SY5Y cells to co-culture U251 cells with SH-SY5Y cells. The medium was collected every 24 hr. The CMs were subsequently used for hCMEC/D3 cell culture after filtrating with 0.2 μm filters for 144 hr. The levels of GDNF, bFGF, IGF-1, and TGF-β in CMs were measured using corresponding ELISA kits according to the manufacturers’ instructions.
(§3) Exogenous and endogenous GDNF in the medium was neutralized with anti-GDNF antibody (#AF-212-NA, R&D system, Minneapolis, MN, USA). 0.25, 0.5, and 1.0 μg/ml anti-GDNF antibody was added into the US-CM or medium containing 200 pg/ml GDNF, and then the medium was preincubated at 4°C for 1 hr. The hCMEC/D3 cells were incubated with 200 pg/ml GDNF or US-CM containing anti-GDNF antibody or not for 6 days, and then cell lysate was collected for western blot. The medium was replaced every 24 hr.
(§4) Here, hCMEC/D3 cells were plated in the plates or culture dishes at 6 × 10^4 cells/cm^2 and transfected with 10 nM of negative control or human FOXO1, ETS1, and CDH5 siRNA (Tsingke Biotechnology, Beijing, China) for 12 hr using Lipofectamine 3000 (Invitrogen, Carlsbad, CA, USA) reagent according to the manufacturer’s instructions. Cells were then incubated with a medium containing GDNF for 72 hr.

[9] = tested on: claudin-5; assay: Western blot of claudin-5 expression in hCMEC/D3 cells; format: cell-based, Homo sapiens; details: for GDNF-induced claudin-5 expression: 200 pg/ml GDNF, 3 μM SPP-86, 5 μM PP2, 3 μM LY294002, 2 μM U0126, 5 μM SP600125, 2 μM SB203580, anti-GDNF antibody 0.25, 0.5, 1.0 μg/ml; for Claudin-5/β-actin Relative Expression, Mean / Claudin-5/β-actin Relative Expression: Figure 2G; for Claudin-5/β-actin Relative Expression, Mean: Con = 1.000; for Claudin-5/β-actin Relative Expression: relative to Con, single replicates
Description: as §1, §2, §3, §4
The plasmids encoding FOXO1 (EX-Z7404-M02) were constructed by GeneCopoeia (Rockville, MD, USA). The hCMEC/D3 cells were plated in plates or dishes at 6 × 10^4 cells/cm^2. They were subsequently transfected with 1 µg of negative control or plasmids encoding FOXO1 6 hr using Lipofectamine 3000 reagent according to the manufacturer’s instructions. Transfected cells were then incubated with the medium containing GDNF for 72 hr.

[10] = In vitro BBB permeability study (Papp), hCMEC/D3 mono-culture BBB model; details: human
[11] = In vitro BBB permeability study (Papp), triple co-culture BBB model; details: human
[12] = Papp, Mono, apical to basolateral, 30 min, 37°C, day 6, mean ± SEM, four biological replicates
[13] = Papp, Triple, apical to basolateral, 30 min, 37°C, day 6, mean ± SEM, four biological replicates

Cc1ncc2n1-c1ccc(Cl)cc1C(c1ccccc1F)=NC2 [Midazolam]
PSPre, Mono [1]: 5060.00 µL/min/g
fu, brain ([2]; ref Kodaira et al., 2011): 0.045^‡ ‡
Papp A→B [3, 12]: 25.3 ± 1 ×10⁻⁶ cm/s
PS ([4]; Mono-culture BBB Model): 5060.00 µL/min/g
PS [5]: 3818.00 µL/min/g
Papp A→B ([6]; Papp Mean, Triple co-culture BBB model, mean of 4 replicates): 19.1 ×10⁻⁶ cm/s
Papp A→B [6, 13]: 19.1 ± 0.24 ×10⁻⁶ cm/s
PSObs ([7]; ref Summerfield et al., 2007): 2727.00^† μl/min/g

Oc1c2ccccc2c2c3c(cccc13)N=N2 [SP600125, reference compound]
GDNF-induced VE-cadherin expression [8]: almost no effect
GDNF-induced claudin-5 expression ([9]; hCMEC/D3 cells): almost no effect

C[S+]([O-])c1ccc(-c2nc(-c3ccncc3)c(-c3ccc(F)cc3)[nH]2)cc1 (stereo not shown) [SB203580, reference compound]
GDNF-induced VE-cadherin expression [8]: almost no effect
GDNF-induced claudin-5 expression ([9]; hCMEC/D3 cells): almost no effect

NCC1(CC(=O)O)CCCCC1 [Gabapentin]
PSPre, Mono [1]: 192.77 µL/min/g
fu, brain ([2]; ref Summerfield et al., 2007): 0.782^†
Papp A→B ([3]; Papp Mean, Mono-culture BBB Model, mean of 4 replicates): 16.7 ×10⁻⁶ cm/s
PS ([4]; Mono-culture BBB Model): 192.77 µL/min/g
PS [5]: 101.05 µL/min/g
Papp A→B [6, 13]: 8.78 ± 0.23 ×10⁻⁶ cm/s
PSObs ([7]; ref Summerfield et al., 2007): 162.90^† μl/min/g

TGF-β
VE-cadherin/β-actin Relative Expression, Mean ([8]; 0.5 ng): 1.041
VE-cadherin/β-actin Relative Expression ([8]; 0.5 ng): 1.060 and 0.953 and 1.005 and 1.147
VE-cadherin/β-actin Relative Expression, Mean ([8]; 2 ng): 1.010
VE-cadherin/β-actin Relative Expression ([8]; 2 ng): 0.849 and 1.087 and 1.125 and 0.979
VE-cadherin/β-actin Relative Expression, Mean ([8]; 5 ng): 0.834
VE-cadherin/β-actin Relative Expression ([8]; 5 ng): 0.847 and 0.832 and 0.952 and 0.705
Claudin-5/β-actin Relative Expression, Mean ([9]; 0.5 ng): 0.967
Claudin-5/β-actin Relative Expression ([9]; 0.5 ng): 0.910 and 1.017 and 1.003 and 0.937
Claudin-5/β-actin Relative Expression, Mean ([9]; 2 ng): 0.982
Claudin-5/β-actin Relative Expression ([9]; 2 ng): 0.870 and 1.019 and 1.090 and 0.947
Claudin-5/β-actin Relative Expression, Mean ([9]; 5 ng): 0.716
Claudin-5/β-actin Relative Expression ([9]; 5 ng): 0.653 and 0.618 and 0.959 and 0.634
claudin-5 expression ([9]; hCMEC/D3 cells, high level (5 ng/ml) of TGF-β): slightly downregulated

COc1ccc(C(CN(C)C)C2(O)CCCCC2)cc1 (stereo not shown) [Venlafaxine]
fu, brain ([2]; ref Esaki et al., 2019): 0.205^*
Papp A→B at 30 min ([10]; Papp (individual replicate), Mono-culture BBB Model, single replicate values (4 per drug)): 10.3 ×10⁻⁶ cm/s
Papp A→B at 30 min [10, 12]: 9.58 ± 0.28 ×10⁻⁶ cm/s
PS ([4]; Mono-culture BBB Model): 420.60 µL/min/g
PSPre, Mono ([4]; PSPre = Papp×60×VSA×1000/fu,brain, VSA 150 cm^2/g, from Papp, Mono): 420.60 µL/min/g
Papp A→B ([4]; read-out: Papp (individual replicate), Mono-culture BBB Model, single replicate values (4 per drug)): 8.74 ×10⁻⁶ cm/s and 9.52 ×10⁻⁶ cm/s and 9.75 ×10⁻⁶ cm/s
PS [5]: 362.02 µL/min/g
Papp A→B ([5]; read-out: Papp (individual replicate), single replicate values (4 per drug)): 8.5 ×10⁻⁶ cm/s and 9.29 ×10⁻⁶ cm/s and 7.72 ×10⁻⁶ cm/s
Papp A→B at 30 min ([11]; Papp (individual replicate), Triple co-culture BBB model, single replicate values (4 per drug)): 7.48 ×10⁻⁶ cm/s
Papp A→B at 30 min [11, 13]: 8.25 ± 0.36 ×10⁻⁶ cm/s

Cc1cc2c(s1)Nc1ccccc1N=C2N1CCN(C)CC1 [Olanzapine]
fu, brain ([2]; ref Summerfield et al., 2007): 0.034^†
PSObs ([7]; ref Summerfield et al., 2007): 2279.70^† μl/min/g

CC(NC(C)(C)C)C(=O)c1cccc(Cl)c1 (stereo not shown) [Bupropion]
PSPre, Mono [1]: 1139.58 µL/min/g
fu, brain ([2]; ref Bhattacharya et al., 2021): 0.12^§
Papp A→B at 30 min ([3]; Papp, Mono): 15.2 ± 0.2 ×10⁻⁶ cm/s
Papp A→B at 30 min ([6]; Papp, Triple): 11.3 ± 0.44 ×10⁻⁶ cm/s

Cc1nc2n(c(=O)c1CCN1CCC(c3noc4cc(F)ccc34)CC1)CCCC2 [Risperidone]
PSObs ([7]; ref Summerfield et al., 2007): 849.60^† μl/min/g

Nc1nnc(-c2cccc(Cl)c2Cl)c(N)n1 [Lamotrigine]
fu, brain ([2]; ref Summerfield et al., 2007): 0.273^†

COc1cc2nc(N3CCN(C(=O)c4ccco4)CC3)nc(N)c2cc1OC [Prazosin]
Papp A→B at 30 min ([3]; Papp (individual replicate)): 4.56 ×10⁻⁶ cm/s
PSObs ([7]; ref Di Marco et al., 2019): 169.20^¶ ¶ μl/min/g

CNCCC(Oc1ccc(C(F)(F)F)cc1)c1ccccc1 (stereo not shown) [Fluoxetine]
fu, brain ([2]; ref Liu et al., 2005): 0.00094
fu, brain ([2]; ref Maurer et al., 2005): 0.0023
fu, brain ([2]; ref Summerfield et al., 2007): 0.004^†
